# Measurements: patent EP2982368A1, “Small molecule compounds displacing focal adhesion core components” (Universität Konstanz, priority 2014, dated 2016)
# Columns and labels:
# FAK = target: T1, FAK (Mus musculus, UniProt P34152); assay: GFP-FAK displacement from focal adhesions (fluorescence imaging, ImageJ quantification of focal adhesions per cell); type: cell-based; settings: for IC50: GFP-FAK MEFs on fibronectin, 1 h incubation, focal adhesions per cell, Hill slope model, read-out: IC50 (displacement of FAK from focal adhesions, cellular IC50); for time to FAK displacement, vinculin localization not disturbed: GFP-FAK MEFs stably expressing mKate-vinculin, 40 µM; for time to FAK displacement from focal adhesions: 20 µM, time series; for concentration sufficient to induce FAK displacement: increasing concentrations
# T1 construct: expressed in transfected cells; host or cells: FAK-/- (p53-/-) mouse embryonic fibroblasts stably re-expressing GFP-FAK
# Text: Ectopic expression of FRNK as a dominant negative inhibitor of FAK effectively blocks FAK dependent events. This type of interference seems to be used physiologically for regulation of FAK function in certain cell types (Taylor et al. 2001). However, there is currently no possibility to instantaneously interfere with FAK localization. Therefore, the inventors sought to identify small molecules to disrupt FAK mediated protein-protein-interactions. Towards this line they set-up a High Content Screen based on FAK-/- MEFs re-expressing GFP-FAK to visualize FAK localization at focal adhesions. Cells were seeded on fibronectin and incubated to allow adherence and spreading. Prior to fixation, cell nuclei were Hoechst stained. FAK containing focal adhesions and cells per field of view were quantified using a custom-made macro for ImageJ. The macro identifies focal adhesions due to local maxima of fluorescence intensity in the GFP-channel. Cells were counted in the Hoechst channel based on a binary image. Closely connected cell nuclei were separated by a watershed algorithm. […] Next, as a proof of principle GFP-FAK MEFs were transduced to express mKate2-tagged FRNK. mKate2-FRNK localizes to focal adhesions, where it efficiently displaces GFP-FAK (Figure 2). […] Consequently, the software can correctly identify FAK displacement from focal adhesions.
# In order to find small molecules which induce the specific delocalization of FAK, two commercial compound libraries with more than 17.000 entries were screened. GFP-FAK MEFs were seeded on fibronectin in multi-well plates and compounds were transferred to the cells with a robot to a final concentration of 40 µM. Cells were incubated for 4 h and nuclei were Hoechst stained prior to fixation. Cells were imaged with an automated microscope and data were analyzed with the ImageJ macro. In the first screening round the macro identified 108 hits, which were curated by visual inspection to exclude instances of dramatic cell rounding and/or detachment. […] To validate these primary hits the inventors transduced the GFP-FAK MEFs to stably express mKate-vinculin, which serves as a FAK-independent marker of focal adhesions and facilitates indication of specific FAK displacement. On a first approach two compounds were identified, which induced FAK displacement within less than 1 h, while vinculin localization was not disturbed (Figure 4). […] Strikingly, they share distinct structural characteristics since both compounds have a NO2-group and an isosteric halogen-substituted phenyl- or thiophene-group (Figure 5).
# In order to investigate the kinetics of FAK displacement at focal adhesions a time series was performed. GFP-FAK MEFs were treated with 20 µM of Mb31 or Mb36 and fixed after different time points. […] Mb36 kinetic was slightly slower with FAK delocalization after 20 min. In addition, GFP-FAK MEFs were treated with increasing concentrations of Mb31 or Mb36 to determine the minimum concentration required to interfere with FAK localization. Untreated or solvent (DMSO) treated cells show the expected localization of FAK at focal adhesions. […] Already 2 µM of Mb31 were sufficient to induce FAK displacement. […] Due to the faster kinetic and lower IC50 compared to Mb36 further studies were mainly performed using Mb31. […] In contrast, vinculin localization and the focal adhesion localization of talin, α-actinin, and zyxin is not disturbed (Figure 5 and Table 1).
# About 17.000 compounds (40 µM working concentration) were screened for their ability to displace GFP-FAK from focal adhesions (FA) using an automated microscope (ImageXpress Micro, Molecular Devices, Ismaning, Germany) equipped with a Nikon 20x/0.75 NA CFI Plan Apo objective. […]
# FAK/Paxillin = target: T2, FAK/Paxillin (Mus musculus, UniProt P34152+Q8VI36); assay: FAK/Paxillin displacement by structurally related compounds (FootLocker series, confocal microscopy); type: cell-based
# T2 construct: expressed in transfected cells; host or cells: mouse fibroblasts stably expressing GFP-FAK
# Protocol: To determine whether compounds structurally related to Mb31 and Mb36 are likewise suitable to interfere with FAK localization at focal adhesions, mouse fibroblasts stably expressing GFP-FAK were treated for 30 min with 1, 10 or 20 µM of the following compounds: trans-3-hydroxy-β-nitrostyrene (THBN), trans-4-Chloro-β-nitrostyrene (T4CN), trans-β-nitrostyrene (TBN), 4-chlorocinnamic acid (4CA), and trans-3-(4-bromothiophen-2-yl)acrylic acid (T34BA) (Figures 16 and 17). The cells were analyzed by confocal microscopy for GFP-FAK localization. DMSO treatment served as a vehicle control. […] Additional substituents at the aromatic structures, such as halogen atoms or hydroxy groups may contribute to the reactivity of the compound, but are not essential. Based on these findings, the inventors have extended their structure activity-relationship studies and synthesized additional related compounds, which, similar to Mb31, displace FAK and paxillin at concentrations below 10µM (++), displace FAK and paxillin at concentrations above 10 µM (+), or lack FAK and paxillin displacing activity (-). All these substances were then also nicknamed in the FLocker terminology, resulting in FLocker1 - FLocker24 (Table 2). Table 2: Overview of FootLocker nomenclature, their chemical notation/structure and the activity towards FAK/Paxillin displacement
# T1 sequence (P34152 whole entry): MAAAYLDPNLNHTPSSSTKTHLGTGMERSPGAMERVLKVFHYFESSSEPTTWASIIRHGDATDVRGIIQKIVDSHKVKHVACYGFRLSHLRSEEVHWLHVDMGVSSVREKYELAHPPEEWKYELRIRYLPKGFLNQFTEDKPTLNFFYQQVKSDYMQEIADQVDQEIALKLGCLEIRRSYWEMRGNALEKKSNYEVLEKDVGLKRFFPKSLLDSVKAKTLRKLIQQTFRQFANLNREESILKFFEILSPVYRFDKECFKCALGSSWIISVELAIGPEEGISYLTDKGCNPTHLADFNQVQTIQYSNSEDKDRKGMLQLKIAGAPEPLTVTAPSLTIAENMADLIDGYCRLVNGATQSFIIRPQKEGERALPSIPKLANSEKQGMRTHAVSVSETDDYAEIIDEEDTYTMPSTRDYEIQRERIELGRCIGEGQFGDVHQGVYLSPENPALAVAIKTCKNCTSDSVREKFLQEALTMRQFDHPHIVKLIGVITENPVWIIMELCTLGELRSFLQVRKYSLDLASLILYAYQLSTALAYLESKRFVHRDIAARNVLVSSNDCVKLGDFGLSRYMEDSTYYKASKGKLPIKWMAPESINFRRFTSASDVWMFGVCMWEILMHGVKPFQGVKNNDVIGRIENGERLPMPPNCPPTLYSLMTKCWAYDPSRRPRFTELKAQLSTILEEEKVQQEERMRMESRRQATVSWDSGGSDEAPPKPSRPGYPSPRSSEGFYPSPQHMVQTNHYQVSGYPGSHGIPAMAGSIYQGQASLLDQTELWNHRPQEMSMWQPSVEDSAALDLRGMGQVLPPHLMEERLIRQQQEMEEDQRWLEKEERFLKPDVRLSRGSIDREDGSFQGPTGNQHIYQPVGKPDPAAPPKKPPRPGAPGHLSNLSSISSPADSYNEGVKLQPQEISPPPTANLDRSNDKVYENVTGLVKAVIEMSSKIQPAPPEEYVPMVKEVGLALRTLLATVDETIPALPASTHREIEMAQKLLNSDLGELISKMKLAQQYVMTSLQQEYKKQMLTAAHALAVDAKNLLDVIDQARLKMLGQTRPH
# T2 sequence (P34152 whole entry): as above
# T2 sequence (Q8VI36 whole entry): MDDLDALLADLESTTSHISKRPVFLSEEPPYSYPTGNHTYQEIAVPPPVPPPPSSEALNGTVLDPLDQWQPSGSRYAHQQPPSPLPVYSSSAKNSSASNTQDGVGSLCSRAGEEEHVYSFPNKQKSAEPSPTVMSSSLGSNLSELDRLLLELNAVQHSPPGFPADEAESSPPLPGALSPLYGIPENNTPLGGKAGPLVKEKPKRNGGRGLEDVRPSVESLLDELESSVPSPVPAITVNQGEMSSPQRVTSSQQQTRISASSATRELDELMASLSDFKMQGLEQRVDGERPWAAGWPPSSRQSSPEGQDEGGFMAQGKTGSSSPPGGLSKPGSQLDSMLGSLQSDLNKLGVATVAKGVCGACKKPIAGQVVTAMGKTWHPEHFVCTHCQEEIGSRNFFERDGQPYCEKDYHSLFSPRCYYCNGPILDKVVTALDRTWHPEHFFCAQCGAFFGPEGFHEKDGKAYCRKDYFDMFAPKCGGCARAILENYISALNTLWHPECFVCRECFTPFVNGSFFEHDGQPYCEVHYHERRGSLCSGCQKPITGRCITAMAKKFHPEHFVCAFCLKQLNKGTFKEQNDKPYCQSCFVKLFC
IC50 (FAK),"time to FAK displacement, vinculin localization not disturbed (FAK)",time to FAK displacement from focal adhesions (FAK; GFP-FAK MEFs),concentration sufficient to induce FAK displacement (FAK; GFP-FAK MEFs),"concentration sufficient for efficient FAK displacement (FAK; second approach, narrower concentration range (1-5 µM))",compounds showing the most prominent effect on protein-protein interactions at focal adhesion site (FAK/Paxillin),"effect on FAK localization (FAK; GFP-FAK MEFs, 2 µM)",SMILES,disruption of protein-protein interactions at focal adhesion site (FAK/Paxillin)
~2 µM,less than 1 h,≤ 5 min,2 µM,about 4 µM,most prominent effect,,"O=[N+]([O-])C=Cc1cc(Br)cs1 [FootLocker 1, 4-bromo-2-(2-nitrovinyl)thiophene]",efficiently disrupt protein-protein interactions at focal adhesion site
~4.1 µM,less than 1 h,20 min,5 µM,,most prominent effect,no effect was observed,"Nc1ccc(SC(C[N+](=O)[O-])c2ccc(Cl)cc2)cc1 (centres unmarked) [FootLocker 2, 4-{[1-(4-chlorophenyl)-2-nitroethyl]thio}aniline]",efficiently disrupt protein-protein interactions at focal adhesion site
